The text below walks through data of PubChem BioAssay AID330 (DTP/NCI, 2004).

For this test, the system named is P388 leukemia ip, CD2F1 mice, survival T/C. The test is described as follows: NCI In Vivo Anticancer Drug Screen. Data for tumor model P388 Leukemia (intraperitoneal) in CD2F1 (CDF1) mice. As to conditions: endpoint: median survival time, higher = longer survival. The essentials: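 Mice carrying the transplanted tumor received test compound or vehicle. Survival was recorded in each group, and the value is the treated-group measurement divided by that of the vehicle-treated control group.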

[1] abbreviates: dose: 50.0 mg/kg/injection, schedule: Q01DX009 (ip), vehicle: Klucel (hydroxypropylcellulose) (HPC).
The mark [2] stands for this setting: dose: 100.0 mg/kg/injection, schedule: Q01DX009 (ip), vehicle: Klucel (hydroxypropylcellulose) (HPC).
Where [3] appears, read: dose: 200.0 mg/kg/injection, schedule: Q01DX009 (ip), vehicle: Klucel (hydroxypropylcellulose) (HPC).
The mark [4] stands for this setting: dose: 100.0 mg/kg/injection, schedule: Q01DX001 (ip), vehicle: Klucel (hydroxypropylcellulose) (HPC).
Where [5] appears, read: dose: 200.0 mg/kg/injection, schedule: Q01DX001 (ip), vehicle: Klucel (hydroxypropylcellulose) (HPC).
The mark [6] stands for this setting: dose: 12.5 mg/kg/injection, schedule: Q01DX009 (ip), vehicle: saline with Tween-80.
Setting [7] is: dose: 25.0 mg/kg/injection, schedule: Q01DX009 (ip), vehicle: saline with Tween-80.
[8] abbreviates: dose: 6.25 mg/kg/injection, schedule: Q04DX002 (ip), vehicle: saline with Tween-80.
The mark [9] stands for this setting: dose: 100.0 mg/kg/injection, schedule: Q01DX001 (ip), vehicle: saline with Tween-80.
The mark [10] stands for this setting: dose: 200.0 mg/kg/injection, schedule: Q01DX001 (ip), vehicle: saline with Tween-80.
The mark [11] stands for this setting: dose: 400.0 mg/kg/injection, schedule: Q01DX001 (ip), vehicle: saline with Tween-80.
The mark [12] stands for this setting: dose: 50.0 mg/kg/injection, schedule: Q01DX005 (ip), vehicle: Klucel (hydroxypropylcellulose) (HPC).
Setting [13] is: dose: 100.0 mg/kg/injection, schedule: Q01DX005 (ip), vehicle: Klucel (hydroxypropylcellulose) (HPC).
The mark [14] stands for this setting: dose: 200.0 mg/kg/injection, schedule: Q01DX005 (ip), vehicle: Klucel (hydroxypropylcellulose) (HPC).
Setting [15] is: dose: 50.0 mg/kg/injection, schedule: Q01DX005 (ip), vehicle: saline with Tween-80.
Setting [16] is: dose: 100.0 mg/kg/injection, schedule: Q01DX005 (ip), vehicle: saline with Tween-80.
The mark [17] stands for this setting: dose: 60.0 mg/kg/injection, schedule: Q01DX005 (ip), vehicle: saline with Tween-80.
Setting [18] is: dose: 120.0 mg/kg/injection, schedule: Q01DX005 (ip), vehicle: saline with Tween-80.
[19] abbreviates: dose: 240.0 mg/kg/injection, schedule: Q01DX005 (ip), vehicle: saline with Tween-80.
[20] abbreviates: dose: 100.0 mg/kg/injection, schedule: Q01DX009 (ip), vehicle: saline with Tween-80.
Setting [21] is: dose: 50.0 mg/kg/injection, schedule: Q01DX009 (ip), vehicle: saline.
The mark [22] stands for this setting: dose: 100.0 mg/kg/injection, schedule: Q01DX009 (ip), vehicle: saline.
Where [23] appears, read: dose: 200.0 mg/kg/injection, schedule: Q01DX009 (ip), vehicle: saline.

Structures are written as SMILES. “And” between values parts separate entries of the source, which are not always exact repeats. Equal values may be shown once. Toxic doses and inconclusive results are not listed.

As for `N#C/C(=C/c1ccc(Cl)cc1)c1ccc(Cl)cc1`, the T/C runs as follows: under setting [1], 102 % of control; under setting [2], 110 % of control; under setting [3], 102 % of control.
On to `CCC(=O)NNc1cccc(Cl)n1`, for which the T/C is, setting by setting: (dose: 50.0 mg/kg/injection, schedule: Q01DX001 (ip), vehicle: Klucel (hydroxypropylcellulose) (HPC)) 98 % of control; under setting [4], 94 % of control; under setting [5], 108 % of control.
In the case of `CC(C)[NH-].CC(C)[NH-].O.O.[Cl][Pt+2][Cl]`, the T/C was 167 % of control (dose: 8.0 mg/kg/injection, schedule: Q01DX009 (ip), vehicle: saline with Tween-80); 184 % of control under setting [6]; 202 % of control (dose: 18.0 mg/kg/injection, schedule: Q01DX009 (ip), vehicle: saline with Tween-80).
Regarding `O=C1C2(Cl)C3(Cl)C4(Cl)C(Cl)(Cl)C5(Cl)[C@]3(Cl)C1(Cl)[C@]5(Cl)C24Cl` (stereo not given in full), the T/C by setting is: (dose: 12.5 mg/kg/injection, schedule: Q01DX009 (ip), vehicle: Klucel (hydroxypropylcellulose) (HPC)) 110 % of control; under setting [6], 94 % of control; (dose: 25.0 mg/kg/injection, schedule: Q01DX009 (ip), vehicle: Klucel (hydroxypropylcellulose) (HPC)) 112 % of control; under setting [7], 87 % of control.
On to `[Cl][Pt+2][Cl].[NH-]C(c1ccc(Cl)cc1)C([NH-])c1ccc(Cl)cc1` (stereo not given), for which the T/C under setting [8] was 124 % of control.
`NC(=S)N/N=C\c1nccc2ncccc12`: the T/C reads like this: under setting [8], 113 % of control; (dose: 12.5 mg/kg/injection, schedule: Q04DX002 (ip), vehicle: saline with Tween-80) 124 % of control.
For `CN1CCN2C(=O)CCC2c2cc(Cl)ccc21` (stereo not given), the T/C is, setting by setting: under setting [9], 101 % of control; under setting [10], 101 % of control; under setting [11], 101 % of control.
Consider `COc1cccc(OCC(=O)O)c1OC`, for which the T/C is, setting by setting: under setting [4], 98 % of control; under setting [5], 97 % of control.
Take `CC(=O)NCc1cc(C)c(CCl)cc1CCl`: the T/C (dose: 3.13 mg/kg/injection, schedule: Q01DX009 (ip), vehicle: distilled water + Tween-80) is 103 % of control; the T/C (dose: 6.25 mg/kg/injection, schedule: Q01DX009 (ip), vehicle: distilled water + Tween-80) was 114 % of control and 117 % of control; the T/C (dose: 12.5 mg/kg/injection, schedule: Q01DX009 (ip), vehicle: distilled water + Tween-80) was 122 % of control and 123 % of control; the T/C (dose: 25.0 mg/kg/injection, schedule: Q01DX009 (ip), vehicle: distilled water + Tween-80) was 116 % of control.
For `COc1ccc(CNCCCSC)cc1`, the T/C (dose: 50.0 mg/kg/injection, schedule: Q01DX005 (ip), vehicle: saline) was 105 % of control and the T/C (dose: 100.0 mg/kg/injection, schedule: Q01DX005 (ip), vehicle: saline) was 110 % of control.
Take `CCN(CC)C(=S)C(C)=C(Sc1ccccc1)Sc1ccccc1`: the T/C was 100 % of control under setting [12], 99 % of control under setting [13] and 99 % of control under setting [14].
Turning to `CC(C)(C)OC(=O)NC(COCc1ccccc1)C(=O)ON1C(=O)CCC1=O` (stereo not given), the T/C reads like this: under setting [15], 114 % of control; under setting [16], 103 % of control.
Take `CCC(c1ccc(OC)cc1)C(NC(=S)Nc1ccc(Cl)cc1)c1ccc(OC)cc1` (stereo not given): the T/C is, setting by setting: under setting [9], 90 % of control; under setting [10], 90 % of control; under setting [11], 109 % of control.
For the compound `CC(NNC(=S)N(C)C1CCCCC1)c1cc2ccccc2cn1` (stereo not given), the T/C by setting is: (dose: 6.25 mg/kg/injection, schedule: Q01DX005 (ip), vehicle: saline with Tween-80) 107 % of control; (dose: 12.5 mg/kg/injection, schedule: Q01DX005 (ip), vehicle: saline with Tween-80) 120 % of control; under setting [15], 151 % of control and 159 % of control.
Take `COC(=O)N1c2ccccc2SC1C#N` (stereo not given): the T/C was 96 % of control under setting [17], 112 % of control under setting [18] and 106 % of control under setting [19].
As to `COc1ccc(C(=O)ON(c2ccccc2)C(C)(C)C)cc1`, the T/C reads like this: under setting [7], 97 % of control; (dose: 50.0 mg/kg/injection, schedule: Q01DX009 (ip), vehicle: saline with Tween-80) 103 % of control; under setting [20], 97 % of control.
For `CCOC(=O)CS(=O)(=O)CCS(=O)(=O)CC(=O)OCC`, the T/C is, setting by setting: under setting [21], 95 % of control; under setting [22], 97 % of control; under setting [23], 102 % of control.
Turning to `CCCCCCCCCCCCCCCCC(C(=O)O)C(O)(CC(=O)O)C(=O)O` (stereo not given), the T/C runs as follows: (dose: 8.75 mg/kg/injection, schedule: Q01DX009 (ip), vehicle: Klucel (hydroxypropylcellulose) (HPC)) 95 % of control; under setting [6], 91 % of control; (dose: 17.5 mg/kg/injection, schedule: Q01DX009 (ip), vehicle: Klucel (hydroxypropylcellulose) (HPC)) 101 % of control; under setting [7], 94 % of control; (dose: 35.0 mg/kg/injection, schedule: Q01DX009 (ip), vehicle: Klucel (hydroxypropylcellulose) (HPC)) 95 % of control; (dose: 70.0 mg/kg/injection, schedule: Q01DX009 (ip), vehicle: Klucel (hydroxypropylcellulose) (HPC)) 87 % of control. Also, the T/C under setting [20] was 90 % of control.
For the compound `C1CC[N-]CC1.CC(=O)Nc1[c-]cccc1.CC(=O)O.[Pd+2]`, the T/C runs as follows: (dose: 25.0 mg/kg/injection, schedule: Q01DX005 (ip), vehicle: saline with Tween-80) 112 % of control and 95 % of control; under setting [15], 107 % of control and 114 % of control and 119 % of control; under setting [16], 111 % of control.
As to `CN(C)Cc1c(N=Nc2cccc3ccccc23)[nH]c2ccccc12`, the T/C runs as follows: under setting [1], 106 % of control; under setting [2], 101 % of control; under setting [3], 105 % of control.
With `Cc1cc(N=Cc2c(CO)cnc(C)c2O)c(N=Cc2c(CO)cnc(C)c2O)cc1C`, the T/C is 98 % of control under setting [12]; 93 % of control under setting [17]; 96 % of control under setting [13]; 104 % of control under setting [18]; 91 % of control under setting [14]; 94 % of control under setting [19].
As to `Nc1nc2c(C(=O)N3CCCC3)nnn2c2cccc(Cl)c12`, the T/C by setting is: under setting [17], 107 % of control; under setting [18], 106 % of control; under setting [19], 106 % of control.
Turning to `CCN(CC)C(=O)OC1c2ccccc2C2CC1c1ccccc1C2O` (stereo not given), the T/C by setting is: (dose: 100.0 mg/kg/injection, schedule: Q04DX003 (ip), vehicle: Klucel (hydroxypropylcellulose) (HPC)) 97 % of control; (dose: 200.0 mg/kg/injection, schedule: Q04DX003 (ip), vehicle: Klucel (hydroxypropylcellulose) (HPC)) 102 % of control; (dose: 400.0 mg/kg/injection, schedule: Q04DX003 (ip), vehicle: Klucel (hydroxypropylcellulose) (HPC)) 89 % of control.
Turning to `O=C(NNc1ccccc1)N(Nc1ccccc1)C(=O)Nc1ccccc1`, the T/C was 99 % of control under setting [15]; 91 % of control under setting [16]; 99 % of control (dose: 200.0 mg/kg/injection, schedule: Q01DX005 (ip), vehicle: saline with Tween-80).
`CSc1nc(N)c(NS(=O)(=O)c2cccc([N+](=O)[O-])c2)c(=O)[nH]1`: the T/C runs as follows: (dose: 60.0 mg/kg/injection, schedule: Q01DX005 (ip), vehicle: Klucel (hydroxypropylcellulose) (HPC)) 92 % of control; (dose: 120.0 mg/kg/injection, schedule: Q01DX005 (ip), vehicle: Klucel (hydroxypropylcellulose) (HPC)) 94 % of control; (dose: 240.0 mg/kg/injection, schedule: Q01DX005 (ip), vehicle: Klucel (hydroxypropylcellulose) (HPC)) 88 % of control.
With `O=C1CCC(c2ccccc2)=NN1`, the T/C is 100 % of control under setting [21]; 106 % of control under setting [22]; 103 % of control under setting [23]; 97 % of control (dose: 400.0 mg/kg/injection, schedule: Q01DX009 (ip), vehicle: saline).
For the compound `CCCCCCCCCCCCNc1ccc(Cl)cc1`, the T/C is 117 % of control and 123 % of control under setting [1]; 103 % of control and 113 % of control under setting [2]; 117 % of control under setting [3].
